Laboratory results taken from patent US20070270392A1, “Use of a Cyclopentenone Prostaglandin for Delaying the Onset and/or Preventing the Continuation of Labour” (Imperial College Innovations Limited, priority 2003, published 2007).

Assays:
NF-κB [1] = experiment: Western immunoblot of NF-κB activation (p65, p50, IκB) in myometrial cells; format: cell-based, human; design: Accumulation of phosphorylated IκBα: dose or concentration left out as unconfirmed
Experimental: Western immunoblots of nuclear or cytosolic protein extracts from (A) myometrial cells, (B) L− amnion cells, and (C) L+amnion cells treated with 15dPGJ2 or vehicle for 2 h+/−IL-1, stimulation (15 min). Blots probed with antibodies against p65, p50 or IκBα.
Western immunoblot of nuclear or cytosolic protein extracts from myometrial cells treated with PGA1 or vehicle for 2 h followed by IL-1β stimulation (15 min). Blots probed with antibodies against p65 or IκBa.
Analysis of nuclear protein extracts from myometrial cells treated with PGE2 or vehicle for 2 h+/−TNFα or IL-1b stimulation (15 min). (A) EMSA using consensus κB probe. (B) Western immunoblot probing for nuclear p65.
Western immunoblots of cytosolic extracts from myometrial cells (A) treated with 15dPGJ2 for 2 h+/−IL1b for 15 min; probed for IKK, and (B) treated with […] 15dPGJ2, […] MG132 or vehicle for 2 h, +/−IL-1β for 15 min; probed for IκBα.
Myometrial tissue was collected at term from the upper margin of uterine incision at the time of lower segment caesarean section either prior to the onset of labour (L−) or […] (L+). L+ samples were collected by Dr Mark Johnson and Dr S Soorrana at Chelsea & Westminster Hospital. Myometrial tissue was dissected, rinsed in PBS, and digested in serum-free DMEM containing 15 mg/ml collagenase 1A (Sigma), 15 mg/ml collagenase X, and 50 mg/ml bovine serum albumin for 45 min at 37° C. The cell suspension was filtered through a cell strainer, centrifuged at 400 g for 5 min, and the pellet re-suspended and plated out in DMEM, 10% FCS (Helena BioScience), 1% L-glutamine, 1% penicillin-streptomycin. Cells were used between passage numbers 1-4.
Nuclear and cytosolic protein extracts were obtained from cultured amnion cells as described by Schreiber et al (1989). For nuclear/cytosolic fractionation, confluent cell monolayers were scraped and lysed using a buffer containing 10 mM HEPES, 10 mM KCl, 0.1 mM EDTA, 0.1 mM EGTA, 2 mM DTT, 1% (v/v) NP-40 and complete protease inhibitor tablets (CPIs, Roche), diluted to manufacturer's instructions. Cell lysates were incubated on ice for 10 min and NP-40 added to a final concentration of 1% (v/v). Lysates were vortexed for 10 secs and centrifuged for 30 secs at 4° C., 12000 g. The supernatants were retained as the cytosolic protein extracts. The pellets were resuspended in buffer containing 10 mM HEPES, 10 mM KCl, 0.1 mM EDTA, 0.1 mM EGTA, 2 mM DTT, 400 mM NaCl, 1% NP-40 (v/v) and CPIs. Samples were shaken vigorously for 15 min in an ice bath. The nuclear protein extracts were obtained in the supernatant following a 5 min centrifugation at 4° C., 12000 g.
Protein samples (20-70 μg) were mixed with Laemmli sample buffer (1:1) containing β-mercaptoethanol (5%), and boiled for 5 min. Proteins were then separated by SDS-PAGE (12-14% gels) and transferred onto PVDF membrane (Amersham Pharmacia Biotech). The membranes were blocked overnight in 5% non-fat milk prepared in PBS-T buffer, at 4° C. The blots were incubated with the primary antibody in 1% non-fat milk in PBS-T buffer for 1 h, and washed three times (10 min each) in PBS-T with vigorous shaking. The blots were then incubated with HRP-conjugated secondary antibody (diluted 1:2000 in 1% non-fat milk in PBS-T buffer) for 1 h and washed three times (10 min each) in PBS-T. Signal detection was achieved using enhanced chemi-luminescence (ECL plus system, Amersham Pharmacia Biotech) according to manufacturer's instructions.
30-50 μg protein extracts were subjected to SDS-PAGE and Western immuno-blotting. Secondary antibodies were IgG-HRP and ECL Plus detection kit (Amersham Pharmacia Biotech, Amersham Place, Little Chalfont, Bucks, HP7 9NA) was used for visualisation.

NF-κB [2] = experiment: NF-κB-dependent luciferase reporter (κB.BG.Luc) in amnion cells; format: cell-based, human; details: L− and L+ amnion cells, treated 2 h, IL-1β 1 ng/ml 6 h
Experimental: . Values are normalised for b-gal reporter activity.
Placentae were obtained from patients at term either at elective Caesarean section prior to labour (L−) or following spontaneous labour onset and vaginal delivery (L+). Amnion cells were prepared as described in Bennett et al., (1989). Briefly, the amnion was separated from the placenta, washed 3× in PBS, cut into strips, and incubated in 0.51 mM EDTA in PBS for 15 min. The strips were washed in PBS 2× and digested with 2.5 mg/ml dispase in serum-free DMEM for 35 min at 37° C. The amnion was then shaken vigorously in DMEM, 10% FCS to dissociate the cells, the remaining strips discarded, and the cell suspension pelleted at 175 g for 10 min and cultured in DMEM, 10% FCS (Sigma), 1% L-glutamine, 1% penicillin-streptomycin.
pGL3.6 κB.BG.luc was the reporter construct used to assess NF-κB-mediated transcription, while the mutant pGL3.6 κBmut.luc and empty pGL3.BG.luc were used as controls (Schwarzer et al., 1998).
pGL3.6 κB.BG.luc: a NF-κB-dependent reporter construct with 6 copies of the NF-κB binding site. It contains two tandem repeats of the sequence 5′-GGG GAC TTT C CC TGGGGACTTTCCCTGGGGACTTTCCC-3′, which contains three copies of the decameric NF-κB binding site (underlined) upstream of a minimal β-globin promoter driving a luciferase gene. […]

| Compound | IL-1β-induced IκBα degradation (NF-κB [1]) | IL-1β-induced p65 nuclear translocation (NF-κB [1]) | IL-1-induced NF-κB transcriptional activity (NF-κB [2]) | IL-1β-induced IκBα and IκBβ degradation (NF-κB [1]) | IL-1β-induced p50 phosphorylation (NF-κB [1]) | Accumulation of phosphorylated IκBα (NF-κB [1]; 2 h, IL-1β 15 min) | IκBα phosphorylation (NF-κB [1]; cytosolic extracts) |
| --- | --- | --- | --- | --- | --- | --- | --- |
| CCCCC[C@H](O)/C=C/[C@H]1C=CC(=O)[C@@H]1CCCCCCC(=O)O [PGA1, prostaglandin A1] | inhibited | inhibited | inhibited | – | – | – | – |
| CCCCCC=CC=C1C(=O)C=C[C@@H]1CC=CCCCC(=O)O [15d-PGJ2, 15-deoxy-Δ^12,14prostaglandin J2] | – | inhibited | inhibited | inhibition | inhibited | not detected | inhibits |
